{"source": "patent US20100209513A1", "about": "“PHARMACEUTICAL COMPOSITION CONTAINING MICRONIZED PARTICLES OF NAPHTHOQUINONE-BASED COMPOUND” (priority 2007, published 2010)", "key": {"[1]": {"assay": "Dissolution test, paddle method (Example 15)", "format": "physicochemical", "details": "for Increasing rate of dissolution rate of 12 hours: after versus before microparticulation; for Change of dissolution rate of micronized particles compared to before micronization: different time points, FIGS. 3 to 6, pH 6.8, 1.5% Tween 80, 37° C.; for Dissolution rate of 12 hours after microparticulation / Dissolution rate of 12 hours before microparticulation: paddle 75 rpm, 37° C., pH 6.8, 1.5% Tween 80; for Dissolution rate of 12 hours after microparticulation: after microparticulation (Jet mill or ball mill, no surfactant)", "method": "Dissolution test was commonly carried out under the following condition.\n(§1) The dissolution test was carried out according to the paddle method of Korean Phramacopeia. The paddle rate was 75 rpm, the temperature of an effluent was 37° C., and a test solution was a mixture solution of pH 6.8, 1.5% Tween 80. First, the test solution was filtered through a […] Membrane filter and centrifuged. Supernatant fluid was taken, and the content of drug was analyzed by HPLC, and the amount of released drug was measured at different time points. The drugs used for the dissolution test are Compounds 1, 5, 44 and 51 provided in Table 1, and the extract set forth in the Korean Patent No. 10-818586 which contains Compound 58 over 60 wt % (‘Compound 58 Extract’). Microparticulation was carried out using Jet mill or ball mill without any surfactant. The particle size of compounds was determined by HELOS measurement."}, "[2]": {"assay": "Particle size before and after micronization, HELOS measurement (Example 15)", "format": "physicochemical", "details": "for Particle size X50 after micronization / Particle size X90 after micronization: after micronization by Jet mill or ball mill without surfactant", "method": "as §1\nMeasurement of the particle size was carried out by putting approximately 3 ml of a sample into a cell for particle size measurement and measuring the particle size during 60 seconds per sample. The particle sizes before and after micronization are provided below."}, "[3]": {"assay": "Body weight change in ob/ob mice given suspensions of cryptotanshinone powder or micronized particles (Example 6)", "format": "in vivo", "details": "ob/ob male mice; 400 mg/kg PO once a day", "method": "1 g of a simply finely-divided powder of cryptotanshinone, and 1 g of each micronized particles of cryptotanshinone compound according to the procedures of Examples 1 to 3 were mixed with 10 mL of distilled water, and the resulting mixtures were processed in a sonicator for 30 min to prepare suspensions of the cryptotanshinone compounds. 400 mg/kg of these suspensions in terms of cryptotanshinone content was administered to ob/ob mice once a day and changes in the body weight (BW) of animals were examined.\nFor this purpose, 10-week-old ob/ob male mice (Jackson Lab) as an obese mouse model of type 2 diabetes were purchased from Orient Co., Ltd., Korea and were allowed to acclimate to a new environment of the breeding room for 10 days prior to experiments. Animals were fed a solid feed (P5053, Labdiet) as a laboratory animal chow. The ob/ob male mice were housed and allowed to acclimate to a new environment for 10 days, in a breeding room maintained at a temperature of 22±2° C., humidity of 55±5%, and a 12-h light/dark (L/D) cycle (light from 8:00 a.m. to 8:00 p.m.). […]"}, "[4]": {"assay": "Body weight change in DIO (diet-induced obesity) SD rats with varying dosages of micronized cryptotanshinone (Example 7)", "format": "in vivo", "details": "for BW loss / Final BW: high-fat diet, Jet mill-micronized with 0.2% SLS", "method": "Each of formulations composed of a mixture of Jet mill-micronized cryptotanshinone at 25 mg/kg, 50 mg/kg and 100 mg/kg with 0.2% (w/w) sodium lauryl sulfate was administered daily for 28 days to DIO (diet-induced obesity) SD rats in which obesity was caused by high-fat diet for 4 weeks. As a control, a surfactant SLS at a concentration of 0.2% was suspended in distilled water and a suspension was then administered to animals."}, "[5]": {"assay": "Particle size of micronized particles prepared in Examples 1 to 5", "format": "physicochemical", "details": "cryptotanshinone prior to supercritical micronization", "method": "In order to develop a supercritical micronization process, 5 g of cryptotanshinone having a particle size distribution of 1 to 100 μm and an average particle size of 30 μm, and 0.5 g of sodium lauryl sulfate were dissolved in 45 mL of methylene chloride. Thereafter, the resulting solution of cryptotanshinone in methylene chloride was injected at a flow rate of 1 to 2 mL/min via a nozzle orifice with a diameter of 1/16 inch into a reaction vessel which was set to a temperature of 30° C., 80 bar, and 2,000 rpm and was filled with liquefied carbon dioxide, whereas carbon dioxide was injected at a flow rate of 10 to 20 mL/min via a nozzle orifice with a diameter of 1/16 inch using an ISCO pump.\nIn order to recover precipitates of small-sized particles from the liquid carbon dioxide solution as an insoluble solvent in the reaction vessel, a volume of carbon dioxide which is 15-fold that of the reaction vessel was flowed to remove the remaining organic solvent and the pressure of the reaction vessel was reduced to recover micronized particles of cryptotanshinone. […]\nMicronizing of cryptotanshinone was carried out using a Jet mill (SJ-100, Nisshin, Japan). […] Micronized particles were recovered and a particle size was determined in terms of particle diameter by […]. […]"}}, "data": [{"molecule": "CC1(C)CCC2=C(O1)c1ccccc1C(=O)C2=O", "note": "[Compound 1, 7,8-dihydro-2,2-dimethyl-2H-naphtho(2,3-b)dihydropyran-7,8-dione]", "values": [{"measurement": "Increasing rate of dissolution rate of 12 hours", "setting": "[1]", "result": 42, "unit": "%"}, {"measurement": "Change of dissolution rate of micronized particles compared to before micronization", "setting": "[1]", "result": "increased significantly"}, {"measurement": "Dissolution rate of 12 hours after microparticulation", "setting": "[1]", "result": 95.52, "unit": "%"}, {"measurement": "Dissolution rate of 12 hours before microparticulation", "setting": "[1]", "result": 67.19, "unit": "%"}, {"measurement": "Particle size X50 after micronization", "setting": "[2]", "result": "X50 = 2.39 μm"}, {"measurement": "Particle size X90 after micronization", "setting": "[2]", "result": "X90 = 5.03 μm"}, {"measurement": "Particle size X50 before micronization", "setting": "[2]", "result": "X50 = 27.83 μm"}, {"measurement": "Particle size X90 before micronization", "setting": "[2]", "result": "X90 = 33.74 μm"}]}, {"molecule": "CC1CC2=C(O1)c1ccccc1C(=O)C2=O", "note": "(stereo not drawn) [Compound 5]", "values": [{"measurement": "Increasing rate of dissolution rate of 12 hours", "setting": "[1]", "result": 10, "unit": "%"}, {"measurement": "Change of dissolution rate of micronized particles compared to before micronization", "setting": "[1]", "result": "increased significantly"}, {"measurement": "Dissolution rate of 12 hours after microparticulation", "setting": "[1]", "result": 86.12, "unit": "%"}, {"measurement": "Dissolution rate of 12 hours before microparticulation", "setting": "[1]", "result": 78.12, "unit": "%"}, {"measurement": "Particle size X50 after micronization", "setting": "[2]", "result": "X50 = 2.48 μm"}, {"measurement": "Particle size X90 after micronization", "setting": "[2]", "result": "X90 = 5.38 μm"}, {"measurement": "Particle size X50 before micronization", "setting": "[2]", "result": "X50 = 3.61 μm"}, {"measurement": "Particle size X90 before micronization", "setting": "[2]", "result": "X90 = 20.09 μm"}]}, {"molecule": "CC1OC2=C(C(=O)C(=O)c3c2ccc2c3CCCC2)C1(C)C", "note": "(stereo not drawn) [Compound 44]", "values": [{"measurement": "Change of dissolution rate of micronized particles compared to before micronization", "setting": "[1]", "result": "increased significantly"}, {"measurement": "Dissolution rate of 12 hours after microparticulation", "setting": "[1]", "result": 41.05, "unit": "%"}, {"measurement": "Dissolution rate of 12 hours before microparticulation", "setting": "[1]", "result": 13.81, "unit": "%"}, {"measurement": "Particle size X50 after micronization", "setting": "[2]", "result": "X50 = 2.41 μm"}, {"measurement": "Particle size X90 after micronization", "setting": "[2]", "result": "X90 = 24.57 μm"}, {"measurement": "Particle size X50 before micronization", "setting": "[2]", "result": "X50 = 3.15 μm"}, {"measurement": "Particle size X90 before micronization", "setting": "[2]", "result": "X90 = 22.41 μm"}]}, {"molecule": "Cc1cc2c(c3ccccc13)C(=O)C(=O)C1=C2OC(C)C1(C)C", "note": "(stereo not drawn) [Compound 51]", "values": [{"measurement": "Change of dissolution rate of micronized particles compared to before micronization", "setting": "[1]", "result": "increased significantly"}, {"measurement": "Dissolution rate of 12 hours after microparticulation", "setting": "[1]", "result": 51.3, "unit": "%"}, {"measurement": "Dissolution rate of 12 hours before microparticulation", "setting": "[1]", "result": 24.08, "unit": "%"}, {"measurement": "Particle size X50 after micronization", "setting": "[2]", "result": "X50 = 3.05 μm"}, {"measurement": "Particle size X90 after micronization", "setting": "[2]", "result": "X90 = 13.48 μm"}, {"measurement": "Particle size X50 before micronization", "setting": "[2]", "result": "X50 = 5.08 μm"}, {"measurement": "Particle size X90 before micronization", "setting": "[2]", "result": "X90 = 21.97 μm"}]}, {"molecule": "C[C@H]1COC2=C1C(=O)C(=O)c1c2ccc2c1CCCC2(C)C", "note": "[Simply finely-divided cryptotanshinone, cryptotanshinone]", "values": [{"measurement": "Final BW", "setting": "[3]", "result": "57.5 ± 1.3", "unit": "g"}]}, {"molecule": "cryptotanshinone [Compound 58]", "values": [{"measurement": "Loss of body weight compared to the control group", "setting": "[4]; 25, 50 and 100 mg/kg daily for 28 days, concentration-dependent", "result": "significant loss of body weight"}, {"measurement": "BW loss", "setting": "[4]; 25 mg/kg daily for 28 days", "result": "16.9 ± 3.8", "unit": "%"}, {"measurement": "Final BW", "setting": "[4]; 25 mg/kg daily for 28 days", "result": "589.0 ± 50.4", "unit": "g"}, {"measurement": "BW loss", "setting": "[4]; 50 mg/kg daily for 28 days", "result": "15.4 ± 3.7", "unit": "%"}, {"measurement": "Final BW", "setting": "[4]; 50 mg/kg daily for 28 days", "result": "578.8 ± 54.6", "unit": "g"}, {"measurement": "BW loss", "setting": "[4]; 100 mg/kg daily for 28 days", "result": "6.2 ± 5.5", "unit": "%"}, {"measurement": "Final BW", "setting": "[4]; 100 mg/kg daily for 28 days", "result": "529.8 ± 59.1", "unit": "g"}, {"measurement": "Average particle size", "setting": "[5]", "result": 30, "unit": "μm"}]}]}
